One data set concerns rat SULT2A1 gene. Conditions: Makishima et al., 1999; cited from earlier work.
For data set [1], the system named is sulfotransferase activity towards 5α-androstenone in Leydig cells. Briefly: Inhibition studies: production of sulfoconjugated 16-androstene steroids from radiolabelled pregnenolone by purified Leydig cells. The class given is cell-based, boar. Conditions: for production of sulfoconjugated 16-androstene steroids from pregnenolone: 8 hours, 0, 5, 10, 50 or 100 μM inhibitor.
Protocol: Purified Leydig cells were resuspended (50×10^6 cells/incubation) into a final volume of 25 ml of Williams Media E mixture. Radiolabelled [7-^3H(N)]-pregnenolone (3.4μCi/μmol) was added as a substrate to give a final concentration of 0.4 μmol/incubation. Leydig cells were incubated for a total of 8 hours at 37° C. under 95%:5% CO2 atmosphere at in a Dubnoff shaking waterbath in the presence of 0, 5, 10, 50, or 100 μM of various sulfotransferase inhibitors. 8 hour incubations were used, as this is an optimal time-point for steroid conjugation under these conditions. […] Estrone was used as an EST-inhibitor. The sulfotransferase activity towards 5α-androstenone was determined by HPLC analysis of extracted 5 ml media aliquots.
Prior to analysis, conjugated steroids were separated from unconjugated steroids with the use of Sep-Pak C18 solid-phase chromatography cartridges as described previously (Raeside et al., 1997). After separation, the conjugate fraction was hydrolyzed overnight in trifluroacetic acid/ethyl acetate (1/100 v/v) at 45° C. in order to liberate the sulfoconjugated steroids (Raeside et al., 1999b). The solvolyzed steroids were then re-extracted by solid-phase chromatography. Enzyme hydrolysis was performed on the remaining conjugated material present after solvolysis with 1250 units of β-glucuronidase (type B-1, from bovine liver), and incubated overnight at 37° C.
The unconjugated and hydrolyzed steroids from the inhibition studies were analyzed by HPLC using the same protocol as stated above; however; radiolabelled steroids were measured on-line with a Canberra-Packard 500TR flow scintillation analyzer.

In a further data set the test system is Leydig cells. Nature of the data set: Viability of isolated Leydig cells (trypan blue exclusion test). The format is cell-based, boar. Conditions: 100 μM, 8 h of exposure. The procedure:
After the slaughter of group A boars, bulbourethral glands were removed and measured for length. A backfat sample was removed from the midline on the point of the 11th rib and frozen at −20° C. until assayed for 5α-androstenone. Testes samples were obtained from five randomly selected animals immediately after slaughter. Testes were transported to the laboratory within five minutes of their removal from the boar. One testis was dissected free from the epididymis, cut longitudinally, and decapsulated. The tissue was sliced and 100 g of tissue was incubated for 12 min in a shaking water bath at 37° C. with 1 mg/mL collagenase (type 1A), 50 μg/mL trypsin inhibitor, and 50 μg/mL DNase in 250 mL of Williams Media E containing 1 g/L bovine serum albumin and 0.1 g/L L-glutamine. Purified Leydig cells were obtained by layering the collagenase dispersed cells onto discontinuous Percoll gradients (Raeside and Renaud, 1983). Cell viability was determined with a trypan blue exclusion test. The typical viability of the isolated Leydig cells was 90%.
Purified Leydig cells were resuspended (50×10^6 cells/incubation) into a final volume of 25 ml of Williams Media E mixture. […] The sulfotransferase activity towards 5α-androstenone was determined by HPLC analysis of extracted 5 ml media aliquots.

Another data set concerns HST. Conditions: Okuda et al., 1989; Singer et al., 1984; cited from earlier work.

As for `C[C@H](CCC(=O)O)[C@H]1CC[C@H]2[C@@H]3[C@H](O)C[C@@H]4C[C@H](O)CC[C@]4(C)[C@H]3CC[C@]12C` [Chenodeoxycholic acid], the “induction of the rat SULT2A1 gene” value in the data set on rat SULT2A1 gene was “strong inducer”.

Regarding `CCN(CC)CC` [Triethylamine], the “production of the unconjugated forms of the 16-androstene steroids” value in data set [1] (Leydig cells treated with inhibitor, 8 hours) is “increased production”. The “production of sulfoconjugated 16-androstene steroids from pregnenolone” value in data set [1] (Leydig cells) is recorded as “decreased production”. The “production of sulfoconjugated 16-androstene steroids at the 100 μM level” value in data set [1] (Leydig cells, 8 hours, 100 μM inhibitor) is listed as “near zero levels”. Also, the “viability of the Leydig cells” value with Leydig cells is recorded as 85%.

On to `Oc1c(Cl)c(Cl)c(Cl)c(Cl)c1Cl` [PCP, Pentachlorophenol], for which, in data set [1] (Leydig cells), the “production of sulfoconjugated 16-androstene steroids from pregnenolone” value is “no effect”. In the data set on Leydig cells, the “viability of the Leydig cells” value is on record as “less than 50%”. In addition, in the data set with HST, the “inhibition of HST” value was “does not inhibit”.

The record behind these values is US20060024708A1, “Porcine sulfotransferase 2A1 polynucleotide sequence, protein, and methods of use for same” (UNIVERSITY OF GUELPH, priority 2004, published 2006).
